This note sets out measurements from paper PMC3909264, “A Novel Acylaminoimidazole Derivative, WN1316, Alleviates Disease Progression via Suppression of Glial Inflammation in ALS Mouse Model” (PLoS ONE, 2014).

The data set can be described thus: Complexing with protein in human serum. Particulars: human sera, unpublished data. It is filed as in vitro ADME.

Structures can show the parent of a compound that is named as a salt.

Consider `Cc1cc(C)c(N(C)CC(=O)Nc2nc(-c3ccccn3)c[nH]2)c(C)c1` [WN1316, 2-[mesityl(methyl)amino]-N-[4-(pyridin-2-yl)-1H-imidazol-2-yl] acetamide trihydrochloride], for which the “protein complexing in serum” value is “complexes with protein”.
